From ChEMBL document CHEMBL1127704 (J Med Chem, 1994)

Key:
[1] = target: T1, Dihydrofolate reductase (Rattus norvegicus, UniProt Q920D2)
T1 sequence (Q920D2 whole entry): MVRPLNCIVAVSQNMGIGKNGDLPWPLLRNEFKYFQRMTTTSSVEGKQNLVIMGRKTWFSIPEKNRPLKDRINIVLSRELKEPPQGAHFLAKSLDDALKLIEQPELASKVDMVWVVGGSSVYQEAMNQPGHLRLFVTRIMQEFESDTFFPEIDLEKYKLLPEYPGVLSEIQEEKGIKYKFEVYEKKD
Description: Inhibition of Dihydrofolate reductase (DHFR) of in rat liver

[2] = target: T2, Bifunctional dihydrofolate reductase-thymidylate synthase (Toxoplasma gondii, UniProt Q07422)
T2 sequence (Q07422 whole entry): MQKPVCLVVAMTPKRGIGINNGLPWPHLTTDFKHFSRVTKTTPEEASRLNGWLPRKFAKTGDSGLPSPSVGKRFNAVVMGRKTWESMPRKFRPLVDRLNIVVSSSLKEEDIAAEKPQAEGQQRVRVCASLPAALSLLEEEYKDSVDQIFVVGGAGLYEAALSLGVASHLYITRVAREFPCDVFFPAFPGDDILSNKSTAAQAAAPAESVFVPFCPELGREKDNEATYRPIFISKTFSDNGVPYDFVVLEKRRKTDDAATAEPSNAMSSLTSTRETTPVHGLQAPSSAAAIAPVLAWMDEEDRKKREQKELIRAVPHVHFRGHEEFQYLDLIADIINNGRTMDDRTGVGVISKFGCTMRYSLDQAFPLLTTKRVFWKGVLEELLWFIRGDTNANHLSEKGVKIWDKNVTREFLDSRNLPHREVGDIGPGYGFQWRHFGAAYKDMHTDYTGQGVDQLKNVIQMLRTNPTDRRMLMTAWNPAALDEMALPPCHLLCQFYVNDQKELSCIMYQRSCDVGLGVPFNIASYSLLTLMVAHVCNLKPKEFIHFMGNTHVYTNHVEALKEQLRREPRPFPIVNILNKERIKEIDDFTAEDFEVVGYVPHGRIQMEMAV
Description: Inhibition of Dihydrofolate reductase of Toxoplasma gondii

[3] = target: T3, Dihydrofolate reductase (Pneumocystis carinii, UniProt P16184)
T3 sequence (P16184 whole entry): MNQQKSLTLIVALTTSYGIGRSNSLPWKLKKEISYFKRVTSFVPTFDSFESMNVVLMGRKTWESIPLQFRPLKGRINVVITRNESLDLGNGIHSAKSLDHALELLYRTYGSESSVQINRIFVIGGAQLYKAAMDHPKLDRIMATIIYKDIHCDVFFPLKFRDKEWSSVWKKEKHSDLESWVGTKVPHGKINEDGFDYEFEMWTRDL
Description: Inhibition of Dihydrofolate reductase of Pneumocystis carinii

SMILES | IC50 [1] [nM] | IC50 [3] [nM] | IC50 [2] [nM]
COc1ccc(OC)c(NCc2ccc3nc(N)nc(N)c3c2Cl)c1 | 44 | 51 | 30
COc1ccc(OC)c(CNc2ccc3nc(N)nc(N)c3c2Cl)c1 | 28 | 53 | 17
COc1ccc(OC)c(CCNc2ccc3nc(N)nc(N)c3c2Cl)c1 |  | 12000 | 990
COc1cc(CN(C)c2ccc3nc(N)nc(N)c3c2Cl)cc(OC)c1OC | 38 | 170 | 16
COc1cc(CCCNc2ccc3nc(N)nc(N)c3c2Cl)cc(OC)c1OC |  | 95000 | 14000
COc1ccc(OC)c(CCCNc2ccc3nc(N)nc(N)c3c2Cl)c1 | 1900 | 26000 | 1000
COc1cc(N(C)Cc2ccc3nc(N)nc(N)c3c2Cl)cc(OC)c1OC |  |  | 6.4

The next lines start with results.

IC50 [1] [nM] | IC50 [3] [nM] | SMILES | IC50 [2] [nM]
6 | 33 | COc1cc(CNc2ccc3nc(N)nc(N)c3c2Cl)cc(OC)c1OC | 7
5400 | 43000 | COc1cc(CCNc2ccc3nc(N)nc(N)c3c2Cl)cc(OC)c1OC | 2600
5.9 | 33 | COc1cc(NCc2ccc3nc(N)nc(N)c3c2Cl)cc(OC)c1OC | 5.2
